Results reported in patent US5116815A, “PF 1022 substance, method of treating helminthic parasitic infection and anthelmintic composition” (Meiji Seika Kaisha Ltd., priority 1989, dated 1992).
Values joined by “and” are separate entries in the source; they are usually repeats but may differ in a detail not shown here. Equal entries are not always repeated.

Experiments:
[1] = test system: small intestinal hairworms (Trichostrongylus colubriformis); assay: Sheep digestive tract nematodes, worms remaining in the intestinal tract; format: in vivo; details: for Number of worms remaining in At autopsy: autopsy 7 days after administration, mean of 6 animals
Procedure: (§1) The PF 1022 substance was evaluated for its anthelmintic effect in sheep mixedly infected with fourth stomachworms (Ostertaqia circumcincta) and small intestinal hairworms (Trichostrongylus colubriformis) by administering it orally to 24 sheep artificially infected with said two worm species.
(§2) The infected sheep were divided into 4 groups of 6 animals, which were respectively given 1 mg/kg, 5 mg/kg, 10 mg/kg and 0 mg/kg (control) of the substance suspended in 0.5% CMC, via a stomach catheter. The observation items were the number of parasite eggs per gram of feces (EPG) before administration, the EPG 7 days after administration, and the number of worms remaining in the fourth stomach and that of worms remaining in the intestinal tract as found upon autopsy 7 days after administration.
(§3) Each numerical value given is the mean of 6 animals.

[2] = test system: large intestinal roundworms (Ascaridia galli); assay: Chicken large intestinal roundworms, administration in feed for 3 weeks; format: in vivo; details: chickens; for Number of eggs before starting administration: baseline
Procedure: The PF 1022 substance was evaluated for its anthelmintic effect on 9 chickens found, by scatoscopy, to be infected with large intestinal roundworms (Ascaridia galli) by administering it in admixture with the feed.
The chickens were divided into three groups of 3 animals, which served as the 1 ppm, 5 ppm and 10 ppm groups. The feed containing the PF 1022 substance in each concentration mentioned above was given to the chickens for 3 weeks. Parasite eggs in feces were counted at one-week intervals in terms of EPG and worms eliminated were counted daily. At the end of the administration period, the chickens were sacrificed and autopsied and the worms remaining therein were counted.

[3] = test system: large intestinal roundworms (Ascaridia galli); assay: Chicken large intestinal roundworm elimination test, single oral dose; format: in vivo; details: chickens; for Mean % Elimination / % Elimination: 7 days; for Mean % Elimination / Mean % body weight gain: group of 3; for % Elimination / % Body weight gain: individual chicken; for Mean % body weight gain / % Body weight gain: after 7 days
Procedure: Chickens verified to be artificially infected with large intestinal roundworms (Ascaridia galli) by scatoscopy were used in groups of three animals. The PF 1022 substance was used at five levels of dose from 0.2 mg/kg to 3 mg/kg. A total of 18 chickens were used in 6 groups, inclusive of an untreated control group.
For administration, an amount of the PF 1022 substance exactly equal to the dose calculated on the basis of the body weight of each chicken was weighed and suspended in water containing carboxymethylcellulose (CMC), and the suspension was administered orally as a single dose using a stomach tube. After administration, the worms eliminated were counted daily for each chicken and, after 7 days, each chicken was sacrificed and autopsied and the worms remaining in the intestinal tract were counted. The percent elimination was calculated as follows: [formula] Furthermore, the body weight just prior to administration and the body weight after 7 days were measured for each chicken and the percent body weight gain was calculated as follows: [formula]

[4] = test system: digestive tract nematodes (Haemonchus controtus, Ostertaqia ostertagi, hairworms, cooperids, etc.); assay: Anthelmintic effect on bovine digestive tract nematodes (EPG); format: in vivo; details: cattle
Procedure: The PF 1022 substance was evaluated for its anthelmintic effect on the so-called digestive tract nematodes parasitizing cattle by orally administering it to three head of cattle found to be infected with such nematodes (Haemonchus controtus, Ostertaqia ostertagi, hairworms, cooperids, etc.) by scatoscopy.
The PF 1022 substance was administered either once at 5 mg/kg or for 2 days once daily at 12.5 mg/kg, in the form of a suspension in water, using a stomach catheter. Parasite eggs in feces (EPG) were counted daily for 3 days before administration and for 7 days following administration.

[5] = test system: whipworms (Trichuris vulpisl); assay: Anthelmintic effect on canine whipworms; format: in vivo; details: dog; for whipworms eliminated / whipworms remaining: 7 days
Procedure: The PF 1022 substance was evaluated for its anthelmintic effect in dogs by orally administering it to dogs found to be infected with roundworms (Toxocara canis), hookworms (Ancylostoma caninum) and whipworms (Trichuris vulpisl), respectively, by scatoscopy.
Thus, the elimination was 100% in both cases. On the other hand, one of two dogs infected with the above-mentioned whipworms was given orally one single dose of 5 mg/kg and the other 10 mg/kg, and the worms eliminated and those remaining uneliminated during 7 days following administration were counted. […] At 10 mg/kg, 22 whipworms were eliminated while none were found remaining uneliminated. Thus, the elimination was 100%.

[6] = test system: fourth stomachworms (Ostertaqia circumcincta) and small intestinal hairworms (Trichostrongylus colubriformis); assay: Sheep digestive tract nematodes, mixed infection, EPG; format: in vivo; details: mean of 6 animals; for EPG At autopsy: 7 days after administration; for EPG Before administration: baseline
Procedure: as §1, §2, §3

Solubility = format: physicochemical
Description: (11) Solubility: Soluble in methanol, ethyl acetate, acetone, chloroform and dimethyl sulfoxide; insoluble in water;

mammalian cell = assay: Mammalian cell chromosomal aberration test; format: cell-based
[7] = single oral dose 0.2 mg/kg, 0.2 mg/kg
[8] = single oral dose 0.5 mg/kg, 0.5 mg/kg
[9] = single oral dose 1 mg/kg, 1 mg/kg
[10] = single oral dose 2 mg/kg, 2 mg/kg
[11] = single oral dose 3 mg/kg, 3 mg/kg

## CC(C)C[C@H]1C(=O)O[C@H](Cc2ccccc2)C(=O)N(C)[C@@H](CC(C)C)C(=O)O[C@H](C)C(=O)N(C)[C@@H](CC(C)C)C(=O)O[C@H](Cc2ccccc2)C(=O)N(C)[C@@H](CC(C)C)C(=O)O[C@H](C)C(=O)N1C [PF 1022 substance]
[1]; oral 1 mg/kg
  Number of worms remaining in At autopsy: 8750
[1]; oral 5 mg/kg
  Number of worms remaining in At autopsy: 8317
[1]; oral 10 mg/kg
  number of worms remaining in the intestinal tract relative to the control infected group: about half
  Number of worms remaining in At autopsy: 5333
[2]; 1 ppm in feed for 3 weeks, autopsy
  Number of worms remaining: 49 and 96 and 83
[2]; 1 ppm in feed
  Number of eggs before starting administration: > 300 and 172
[2]; 5 ppm in feed for 3 weeks
  % Elimination: 86.1% and 56.9% and 62.5%
[2]; 5 ppm in feed
  Number of eggs before starting administration: 300 and > 300 and 158
[2]; 10 ppm in feed for 3 weeks
  Number of worms eliminated: 44 and 55 and 45
[2]; 10 ppm in feed
  Number of eggs before starting administration: 300 and > 300 and 176
[3]; single oral dose 0.2 mg/kg
  Mean % Elimination: 18.5%
  Mean % body weight gain: 9.6%
[3]; [7]
  % Elimination: 12.9% and 16.0% and 26.7%
  % Body weight gain: 6.3% and 8.4% and 14.0%
[3]; single oral dose 0.5 mg/kg
  Mean % Elimination: 45.4%
  Mean % body weight gain: 9.2%
[3]; [8]
  % Elimination: 16.4% and 52.1% and 67.7%
  % Body weight gain: 8.2% and 11.5% and 7.8%
[3]; single oral dose 1 mg/kg
  Mean % Elimination: 74.1%
  Mean % body weight gain: 8.7%
[3]; [9]
  % Elimination: 60.0% and 76.1% and 86.2%
  % Body weight gain: 8.2% and 6.6% and 11.2%
[3]; single oral dose 2 mg/kg
  Mean % Elimination: 84.6%
  Mean % body weight gain: 8.9%
[3]; [10]
  % Elimination: 82.1% and 93.5% and 78.3%
  % Body weight gain: 7.8% and 10.5% and 8.4%
[3]; [11]
  % Elimination: 100% and 95.5% and 98.3%
  % Body weight gain: 11.8% and 9.7% and 8.3%
[4]; 2 day administration at 12.5 mg/kg, day after the second day of administration
  EPG relative to that found before administration: about half
[4]; oral 5.0 mg/kg x 1, Day 0 (day of first administration)
  EPG: 34
[4]; oral 5.0 mg/kg x 1, Day 1
  EPG: 44
[4]; oral 5.0 mg/kg x 1, Day 2
  EPG: 61
[4]; oral 5.0 mg/kg x 1, Day 3
  EPG: 18
[4]; oral 5.0 mg/kg x 1, Day 4
  EPG: 30
[4]; oral 5.0 mg/kg x 1, Day 5
  EPG: 6
[4]; oral 5.0 mg/kg x 1, Day 6
  EPG: 27
[4]; oral 5.0 mg/kg x 1, Day 7
  EPG: 7
[4]; oral 5.0 mg/kg x 1, Day -1 (before administration)
  EPG: 34
[4]; oral 5.0 mg/kg x 1, Day -2 (before administration)
  EPG: 32
[4]; oral 5.0 mg/kg x 1, Day -3 (before administration)
  EPG: 30
[4]; oral 12.5 mg/kg x 2, Day 0 (day of first administration), 12.5 mg/kg
  EPG: 112 and 64
[4]; oral 12.5 mg/kg x 2, Day 2, 12.5 mg/kg
  EPG: 26 and 30
[4]; oral 12.5 mg/kg x 2, Day 3, 12.5 mg/kg
  EPG: 34 and 41
[4]; oral 12.5 mg/kg x 2, Day 4, 12.5 mg/kg
  EPG: 41 and 29
[4]; oral 12.5 mg/kg x 2, Day 5, 12.5 mg/kg
  EPG: 41 and 34
[4]; oral 12.5 mg/kg x 2, Day 6, 12.5 mg/kg
  EPG: 42 and 40
[4]; oral 12.5 mg/kg x 2, Day 7, 12.5 mg/kg
  EPG: 49 and 36
[4]; oral 12.5 mg/kg x 2, Day -1 (before administration), 12.5 mg/kg
  EPG: 109 and 67
[4]; oral 12.5 mg/kg x 2, Day -2 (before administration), 12.5 mg/kg
  EPG: 109 and 58
[4]; oral 12.5 mg/kg x 2, Day -3 (before administration), 12.5 mg/kg
  EPG: 91 and 58
[5]; single oral dose 5 mg/kg
  percent elimination: 39.4%
  whipworms eliminated: 327
  whipworms remaining: 504
[5]; single oral dose 10 mg/kg
  elimination: 100%
  whipworms eliminated: 22
  whipworms remaining: none
[6]; oral 1 mg/kg
  EPG At autopsy: 3114
  EPG Before administration: 2447
[6]; oral 5 mg/kg
  EPG At autopsy: 2462
  EPG Before administration: 2458
[6]; oral 10 mg/kg
  EPG At autopsy: 1970
  EPG Before administration: 2332
Solubility; methanol, ethyl acetate, acetone, chloroform and dimethyl sulfoxide
  Solubility: Soluble
Solubility; water
  Solubility: insoluble
Mammalian cell
  mammalian cell chromosomal aberration test result: negative
